Assay results taken from patent EP4768482A1, “THIOBENZIMIDAZOLE DERIVATIVE OR PHARMACEUTICALLY ACCEPTABLE SALT THEREOF, AND USE THEREOF” (Korea University Research and Business Foundation, priority 2023, dated 2025).

System: MDA-MB-231
Test: MTS cell viability assay, MDA-MB-231 breast cancer cell line
Type: cell-based
Conditions: Homo sapiens, MDA-MB-231 cell line, 0-10 µM, 72 hours
Experimental: MDA-MB-231 (Cell seeding numbers: 0.8(M231) x 10^4 cells/wells (confluency ≧ 25%), which is a human triple-negative breast cancer (TNBC) cell line, and JIMT-1 (Cell seeding numbers: 0.8(JIMT) x 10^4 cells/wells (confluency ≧ 25%)), which is a HER2 positive breast cancer (HER2+ BC) cell line, were used in the experiment.
The above cell lines were cultured in an environment of 5% CO2 and 37°C in a Dulbecco's modified Eagle's medium (DMEM) including a 10% fetal bovine serum (FBS), a streptomycin-penicillin (100 U/mL), and a Fungizone (0.625 µg/mL), respectively.
The human breast cancer cell lines MDA-MB-231 and JIMT-1 were treated with thiobenzimidazole derivatives of Formulas 1-1 to 1-10 at concentrations of 0, 0.5, 1, and 5 µM, respectively, for 72 hours, and then cell viability was measured using the MTS assay technique. In the MTS assay, cells were attached to a 96-well plate for 24 hours, treated with the thiobenzimidazole derivative for 72 hours, developed with MTS (3-(4,5-dimethylthiazol-2-yl)-5-(3-carboxymethoxyphenyl)-2-(4-sulfophenyl)-2H-tetrazolium) for 4 hours, and then absorbance was measured at 490 nm using a Spectramax Plus384 microplate analyzer. The results are illustrated in FIG. 1, and as illustrated in the drawing, it was confirmed that the thiobenzimidazole derivatives of Formula 1-1 to 1-10 inhibited cell viability in a concentration-dependent manner in the human breast cancer cell lines MDA-MB-231 and JIMT-1.
The MDA-MB-231 and JIMT-1 cell lines were treated with thiobenzimidazole derivatives (Formula 1-1 to 1-4) of the disclosure at concentrations of 0, 0.01, 0.05, 0.1, 0.25, 0.5, 1, 5, and 10 µM, respectively, and then cell viability and IC50 values therefrom were confirmed. The preparation method of the cell lines and the experimental method were the same as those performed in Example 1.

IC50 | SMILES
592 nM | COC(=O)Nc1nc2cc(Sc3ccc(N4CCC(N5CCOCC5)CC4)cc3)ccc2[nH]1 [Formula 1-1, Methyl (5-((4-(4-morpholinopiperidin-1-yl)phenyl)thio)-1H-benzo[d]imidazol-2-yl)carbamate]
174 nM | COC(=O)Nc1nc2cc(Sc3ccc(N4CCOCC4)c(F)c3)ccc2[nH]1 [Formula 1-2, Methyl (5-((3-fluoro-4-morpholinophenyl)thio)-1H-benzo[d]imidazol-2-yl)carbamate]
583 nM | COC(=O)Nc1nc2cc(Sc3ccc(N4CCN(C)CC4)c(F)c3)ccc2[nH]1 [Formula 1-3, Methyl (5-((3-fluoro-4-(4-methylpiperazin-1-yl)phenyl)thio)-1H-benzo[d]imidazol-2-yl)carbamate]
135 nM | COC(=O)Nc1nc2cc(Sc3ccc(N4CCC(O)CC4)nc3)ccc2[nH]1 [Formula 1-4, Methyl (5-((6-(4-hydroxypiperidin-1-yl)pyridin-3-yl)thio)-1H-benzo[d]imidazol-2-yl)carbamate]
